Test results reported in US11401271B2, “Fused heterocyclic compound, pyrazole-ring-containing fused heterocyclic compound, agricultural composition containing thereof, and method of using the composition” (SOUTH CHINA AGRICULTURAL UNIVERSITY, priority 2017, dated 2022).
Like-named read-outs stand apart in the source and are kept apart here.

Experiments:
Assay in all cases: whole plant or invertebrate
Type in all cases: in vivo
Aphis craccivora = conditions: for Aphis craccivora Mortality (%) 500 ppm / Aphis craccivora Mortality (%): wingless adults, 500 ppm; for Aphis craccivora Mortality (%) 500 ppm: impregnation method, 24 hours; for mortality at 500 ppm: Aphis craccivora, 24 h, read-out: Aphis craccivora Mortality (%) 500 ppm; for Aphis craccivora Mortality (%): immersion 5 seconds, counted after 24 hours
Description: (3) Insecticidal Activity on Aphid Adults.
Aphid is a homoptera pest with a piercing-sucking mouthpart and is a common vegetable pest. Aphis craccivora were taken as test objects and tested by using an impregnation method.
Operation process: Samples were weighed accurately, and respectively added with 200 μL of dimethyl sulfoxide to prepare 10 g/L mother liquor which was diluted into a concentration of 500 ppm with an aqueous solution containing 0.05% of Tween-80 during the test. After the wingless Aphis craccivora adults stably sucked on bean sprouts, the wingless Aphis craccivora adults together with the bean sprouts were immersed into a liquid medicine with a concentration of 500 ppm, taken out after 5 seconds, air-dried naturally, transferred into a clean vessel, and fed at a constant temperature of 23° C. Each concentration was repeated 3 times, and an aqueous solution containing 0.05% of Tween-80 was used as a control group. After being treated for 24 hours, a number of dead Aphis craccivora was counted, and a mortality (%) was calculated according to a formula that mortality (%)=(number of live Aphis craccivora in the control group−number of treated live Aphis craccivora)/number of live Aphis craccivora in the control group*100%.

Spodoptera exigua = conditions: for Spodoptera exigua Mortality (%) 500 ppm / Spodoptera exigua Mortality (%): 2nd-instar larvae, leaf immersion feeding, 500 ppm; for Spodoptera exigua Mortality (%) 500 ppm: 24 hours; for mortality at 500 ppm: Spodoptera exigua, 24 h, read-out: Spodoptera exigua Mortality (%) 500 ppm
Description: (2) Insecticidal Activity on 2nd-Instar Larvae of Spodoptera exigua.
Spodoptera exigua is a lepidoptera pest with a chewing mouthpart and is a common vegetable pest. The 2nd-instar larvae of Spodoptera exigua were used as test objects and tested by using a leaf immersion feeding method.
(§1) Operation process: Samples were weighed accurately, and respectively added with 200 μL, of dimethyl sulfoxide to prepare 10 g/L mother liquor which was diluted into a concentration of 500 ppm with an aqueous solution containing 0.05% of Tween-80 during the test. A hole puncher with a diameter of 1.0 cm was used to make cleaned cabbage leaves into leaf discs. The leaf discs were immersed in a liquid medicine, taken out after 5 seconds, air-dried naturally, and transferred into a clean vessel. About 35 2nd -instar larvae of Spodoptera exigua were put into the vessel and fed at a constant temperature of 28° C. Each concentration was repeated 3 times, and an aqueous solution containing 0.05% of Tween-80 was used as a control group. After being treated for 24 hours, a number of dead Spodoptera exigua was counted, and a mortality (%) was calculated according to a formula that mortality (%)=(number of live larvae in the control group −number of treated live larvae)/number of live larvae in the control group * 100%.

Plutella xylostella = conditions: for Plutella xylostella Mortality (%) 500 ppm / Plutella xylostella Mortality (%): 2nd-instar larvae, leaf immersion feeding, 500 ppm; for mortality at 500 ppm: Plutella xylostella, read-out: Plutella xylostella Mortality (%) 500 ppm
Description: (1) Insecticidal Activity on 2nd-Instar Larvae of Plutella xylostella.
Plutella xylostella (L.) is a lepidoptera pest with a chewing mouthpart and is a common vegetable pest. The 2nd-instar larvae of Plutella xylostella were used as test objects and tested by using a leaf immersion feeding method.
as §1, with “μL” for “μL,”, “2nd-instar” for “2nd -instar”, “Plutella xylostella” for “Spodoptera exigua”, “group−number” for “group −number”, “group*100%.” for “group * 100%.”

Solenopsis invicta = conditions: water test tube poison-feeding; for mortality at 100 ppm: Solenopsis invicta; for Solenopsis invicta Mortality (%) 100 ppm 24 h / Solenopsis invicta Mortality (%) 100 ppm 72 h / Solenopsis invicta Mortality (%) 24 h / Solenopsis invicta Mortality (%) 72 h: 100 ppm
Description: (4) Insecticidal Activity on Solenopsis invicta.
As a hymenoptera pests and a social insect, Solenopsis invicta is one of the most destructive invasive organisms. Solenopsis invicta were used as test objects and tested by using a water test tube poison-feeding method.
Operation process: Samples were weighed accurately, and respectively added with 200 μL of dimethyl sulfoxide to prepare 10 g/L mother liquor which was diluted into a concentration of 100 ppm with a mixed aqueous solution containing 0.05% of Tween-80 and 5% of honey during the test. […] The raising test tube was placed in a raising box horizontally, and a small amount of ham sausages were added to the raising test tube as food to raise the Solenopsis invicta at a constant temperature of 25° C. After being treated for 24 hours and 72 hours, a number of live Solenopsis invicta and a number of dead Solenopsis invicta were counted, and a mortality (%) was calculated according to a formula that mortality (%)=(number of live Solenopsis invicta in the control group−number of treated live Solenopsis invicta)/number of live Solenopsis invicta in the control group*100%.

[1] = 24 h, read-out: Solenopsis invicta Mortality (%) 100 ppm 24 h, 100 ppm, 24 h
[2] = 72 h, read-out: Solenopsis invicta Mortality (%) 100 ppm 72 h, 100 ppm, 72 h

SMILES	mortality at 500 ppm (Aphis craccivora) [%]	mortality at 500 ppm (Spodoptera exigua) [%]	mortality at 500 ppm (Plutella xylostella) [%]	mortality at 100 ppm (Solenopsis invicta; [1]) [%]	mortality at 100 ppm (Solenopsis invicta; [2]) [%]	Aphis craccivora Mortality (%) (Aphis craccivora)	Spodoptera exigua Mortality (%) (Spodoptera exigua)	Plutella xylostella Mortality (%) (Plutella xylostella)	Solenopsis invicta Mortality (%) 24 h (Solenopsis invicta; 24 h) [%]	Solenopsis invicta Mortality (%) 72 h (Solenopsis invicta; 72 h) [%]	further results
CC(=O)C1(CC(=O)C(F)(F)F)Nc2c([S+]([O-])C(F)(F)F)c(C#N)nn2-c2ncc(C(F)(F)F)cc21 (stereo not drawn) [a-37]											Aphis craccivora Mortality (%) 500 ppm (Aphis craccivora): 100%; Spodoptera exigua Mortality (%) 500 ppm (Spodoptera exigua): 96%; Plutella xylostella Mortality (%) 500 ppm (Plutella xylostella): 100%; Solenopsis invicta Mortality (%) 100 ppm 24 h (Solenopsis invicta; 24 h): 15%; Solenopsis invicta Mortality (%) 100 ppm 72 h (Solenopsis invicta; 72 h): 99%
Cc1ccc(S(=O)(=O)Nc2c(C#N)nn3c2NC(C)(C)c2ccccc2-3)cc1 [Compound A20]	100	90	100	26	93						
N#Cc1nn2c(c1[S+]([O-])C(F)(F)F)NC(C(=O)C(F)(F)F)c1cc(C(F)(F)F)cnc1-2 (stereo not drawn) [a-71]											Aphis craccivora Mortality (%) 500 ppm (Aphis craccivora): 100%; Spodoptera exigua Mortality (%) 500 ppm (Spodoptera exigua): 99%; Plutella xylostella Mortality (%) 500 ppm (Plutella xylostella): 100%; Solenopsis invicta Mortality (%) 100 ppm 24 h (Solenopsis invicta; 24 h): 24%; Solenopsis invicta Mortality (%) 100 ppm 72 h (Solenopsis invicta; 72 h): 100%
[O-][S+](c1c(C(F)(F)F)nn2c1NC(Br)c1c(Cl)cncc1-2)C(F)(F)F (stereo not drawn) [b-104]						100	96	96	20	96	
C=CC1(C(F)(F)F)Nc2c(-c3ccccc3C(F)(F)F)c(C#N)nn2-c2c(Cl)cc(C(F)(F)F)cc21 (stereo not drawn) [Compound C11]	100	100	100	46	100						
N#Cc1nn2c(c1[S+]([O-])C(F)(F)F)NC(CCl)(C(O)CO)c1cc(C(F)(F)F)cc(Cl)c1-2 (stereo not drawn) [Compound C55]	91	80	88	19	83						
CC(C)C1Nc2c(OC(F)(F)F)c(C#N)nn2-c2c(Cl)cc(C(F)(F)F)cc21 (stereo not drawn) [d-141]						100	95	90	11	91	
CNC(=O)Nc1cc2n(n1)-c1cnccc1C(F)(CC(F)(F)F)N2 (stereo not drawn) [Compound A41]	100	100	100	24	100						
CC(=O)C1(CC(=O)C(F)(F)F)Nc2c([S+]([O-])C(F)(F)F)c(C#N)nn2-c2cncc(Cl)c21 (stereo not drawn) [b-37]						99	90	86	20	94	
N#CCC1(CBr)Nc2c([S+]([O-])C(F)(F)F)c(C#N)nn2-c2c(Cl)cc(C(F)(F)F)cc21 (stereo not drawn) [Compound C28]	100	100	100	30	98						
COC(=O)C1(CC(=O)OCC(F)(F)F)Nc2c([S+]([O-])C(F)(F)F)c(C#N)nn2-c2cc(C(F)(F)F)cc(Cl)c21 (stereo not drawn) [c-19]						100	100	100	20	100	
CNC1(CC#N)Nc2c([S+]([O-])C(F)(F)F)c(C#N)nn2-c2cncc(Cl)c21 (stereo not drawn) [b-43]						89	80	89	19	90	
CSc1nn2c(c1C#N)NC(F)(C(F)(F)F)c1ccccc1-2 (stereo not drawn) [Compound A25]	100	100	100	38	100						
COC(=O)CC1(C(=O)OC)Nc2c(OC(F)(F)F)c(C#N)nn2-c2c(Cl)cc(C(F)(F)F)cc21 (stereo not drawn) [d-3]						100	98	100	21	87	
C=CC1(C(F)(F)F)Nc2c(-c3cc(C)oc3C)c(C#N)nn2-c2c(Cl)cc(C(F)(F)F)cc21 (stereo not drawn) [Compound C12]	100	91	100	18	95						
COC(=O)CC1(C(=O)C(F)(F)F)Nc2c([S+]([O-])C(F)(F)F)c(C#N)nn2-c2ncc(C(F)(F)F)cc21 (stereo not drawn) [a-28]											Aphis craccivora Mortality (%) 500 ppm (Aphis craccivora): 100%; Spodoptera exigua Mortality (%) 500 ppm (Spodoptera exigua): 95%; Plutella xylostella Mortality (%) 500 ppm (Plutella xylostella): 100%; Solenopsis invicta Mortality (%) 100 ppm 24 h (Solenopsis invicta; 24 h): 23%; Solenopsis invicta Mortality (%) 100 ppm 72 h (Solenopsis invicta; 72 h): 99%
[O-][S+](c1c(C(F)(F)F)nn2c1NC(C(F)(F)F)c1cc(C(F)(F)F)cc(Cl)c1-2)C(F)(F)F (stereo not drawn) [d-107]						100	100	100	24	100	
CC(=O)C1Nc2c([S+]([O-])C(F)(F)F)c(C(F)(F)F)nn2-c2c(Cl)cc(C(F)(F)F)cc21 (stereo not drawn) [d-112]						100	80	96	36	99	
